ChEMBL document CHEMBL4138130, “Effect of mofezolac-galactose distance in conjugates targeting cyclooxygenase (COX)-1 and CNS GLUT-1 carrier” (Eur J Med Chem, 2017)
pIC50: −log10 of the molar value. Values belong to the molecule of their own block, whether it stands above or below them. Active and inactive are the calls of the source. No cut-off for these calls is given here.

Experiments:
[1] = system: Caco-2; assay: Cell cycle arrest in human Caco2 cells assessed as accumulation at S-phase at 100 uM after 24 hrs by propidium iodide staining based flow cytometry; type: functional
[2] = biological target: T1, GLUT1 (Solute carrier family 2, facilitated glucose transporter member 1) (Homo sapiens, UniProt P11166); assay: Apparent permeability across basolateral to apical side in human Caco2 cells assessed as GLUT1-mediated drug transport at 100 uM after 120 mins by UV-Visible spectroscopic method; type: ADME, cell-based; settings: Caco-2
T1 sequence (P11166 whole entry): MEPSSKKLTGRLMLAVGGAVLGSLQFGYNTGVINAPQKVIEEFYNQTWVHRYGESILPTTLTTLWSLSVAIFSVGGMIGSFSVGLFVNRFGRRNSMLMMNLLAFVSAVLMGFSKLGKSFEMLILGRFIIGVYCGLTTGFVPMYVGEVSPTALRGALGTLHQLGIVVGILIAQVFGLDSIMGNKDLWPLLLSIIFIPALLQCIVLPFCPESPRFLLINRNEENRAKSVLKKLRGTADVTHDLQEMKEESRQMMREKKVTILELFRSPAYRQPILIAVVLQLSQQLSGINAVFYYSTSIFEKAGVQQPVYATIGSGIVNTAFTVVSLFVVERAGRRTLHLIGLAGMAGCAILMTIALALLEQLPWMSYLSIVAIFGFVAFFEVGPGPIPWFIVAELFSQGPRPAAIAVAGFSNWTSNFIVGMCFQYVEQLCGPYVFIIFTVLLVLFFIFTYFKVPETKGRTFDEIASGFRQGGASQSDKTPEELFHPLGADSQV

[3] = biological target: T2, Solute carrier family 2, facilitated glucose transporter member 1 (Homo sapiens, UniProt P11166); assay: Inhibition of GLUT1-mediated 2NBDG uptake in human Caco2 cells at 0.01 to 0.1 mM after 10 mins by Hoechst 33342 staining based fluorescence assay; type: cell-based; settings: caco-2, 10 min, 100 µM
T2 sequence (P11166 whole entry): T1 sequence (P11166 whole entry)

[4] = Apparent permeability across apical to basolateral side in human Caco2 cells at 100 uM after 120 mins by UV-Visible spectroscopic method; type: ADME, cell-based; settings: Caco-2
[5] = system: Caco-2; assay: Cell cycle arrest in human Caco2 cells assessed as accumulation at G2/M-phase at 100 uM after 24 hrs by propidium iodide staining based flow cytometry; type: functional
[6] = biological target: T2, Solute carrier family 2, facilitated glucose transporter member 1; assay: Permeability across basolateral to apical side in human Caco2 cells assessed as GLUT1-mediated drug transport by transportability method; type: ADME, cell-based; settings: Caco-2
[7] = biological target: T3, Prostaglandin G/H synthase 2 (Homo sapiens) (UniProt P35354); assay: Inhibition of human COX2 assessed as reduction in appearance of oxidized TMPD at 50 uM using arachidonic acid as substrate by colorimetric assay relative to control
T3 sequence (whole entry): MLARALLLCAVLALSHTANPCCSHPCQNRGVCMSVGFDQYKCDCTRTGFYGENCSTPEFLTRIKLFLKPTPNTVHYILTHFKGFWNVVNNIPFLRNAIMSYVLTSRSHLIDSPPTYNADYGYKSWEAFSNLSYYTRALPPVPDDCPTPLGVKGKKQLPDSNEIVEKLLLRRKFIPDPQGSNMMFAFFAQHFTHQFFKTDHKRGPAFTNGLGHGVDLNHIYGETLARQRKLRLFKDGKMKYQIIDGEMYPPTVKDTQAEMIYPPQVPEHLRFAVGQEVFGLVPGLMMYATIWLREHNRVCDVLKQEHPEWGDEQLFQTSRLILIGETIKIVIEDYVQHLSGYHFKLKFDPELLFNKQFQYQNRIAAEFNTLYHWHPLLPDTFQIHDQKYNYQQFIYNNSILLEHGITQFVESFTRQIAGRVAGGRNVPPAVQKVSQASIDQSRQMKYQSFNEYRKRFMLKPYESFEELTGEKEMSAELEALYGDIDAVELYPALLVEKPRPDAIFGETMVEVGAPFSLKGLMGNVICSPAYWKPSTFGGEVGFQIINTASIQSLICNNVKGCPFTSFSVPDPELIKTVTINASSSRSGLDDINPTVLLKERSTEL

[8] = biological target: T4, Prostaglandin G/H synthase 1 (Homo sapiens, UniProt P23219); assay: Inhibition of human COX1 assessed as reduction in appearance of oxidized TMPD at 50 uM using arachidonic acid as substrate by colorimetric assay relative to control
[9] = biological target: T5, Prostaglandin G/H synthase 2 (Homo sapiens, UniProt P35354); assay: Inhibition of human COX2 assessed as reduction in appearance of oxidized TMPD using arachidonic acid as substrate by colorimetric assay
T5 sequence (P35354 whole entry): T3 sequence (whole entry)

[10] = biological target: T4, Prostaglandin G/H synthase 1; assay: Inhibition of human COX1 assessed as reduction in appearance of oxidized TMPD using arachidonic acid as substrate by colorimetric assay
[11] = biological target: T2, Solute carrier family 2, facilitated glucose transporter member 1; assay: Inhibition of GLUT1-mediated 2NBDG uptake in human Caco2 cells at 1 to 10 mM after 10 mins by Hoechst 33342 staining based fluorescence assay; type: cell-based; settings: caco-2, 10 min, 10000 µM
[12] = biological target: T6, Prostaglandin G/H synthase 1 (Mus musculus) (UniProt P22437); assay: Inhibition of COX1 in mouse BV2 cells assessed as reduction in LPS-stimulated PGE2 release by measuring PGE2 level at 1 uM preincubated for 1 hr followed by LPS addition measured after 48 hrs by immunoassay (reference value: 0.7555 +/- 0.032 ng/ml); type: cell-based
T6 sequence (whole entry): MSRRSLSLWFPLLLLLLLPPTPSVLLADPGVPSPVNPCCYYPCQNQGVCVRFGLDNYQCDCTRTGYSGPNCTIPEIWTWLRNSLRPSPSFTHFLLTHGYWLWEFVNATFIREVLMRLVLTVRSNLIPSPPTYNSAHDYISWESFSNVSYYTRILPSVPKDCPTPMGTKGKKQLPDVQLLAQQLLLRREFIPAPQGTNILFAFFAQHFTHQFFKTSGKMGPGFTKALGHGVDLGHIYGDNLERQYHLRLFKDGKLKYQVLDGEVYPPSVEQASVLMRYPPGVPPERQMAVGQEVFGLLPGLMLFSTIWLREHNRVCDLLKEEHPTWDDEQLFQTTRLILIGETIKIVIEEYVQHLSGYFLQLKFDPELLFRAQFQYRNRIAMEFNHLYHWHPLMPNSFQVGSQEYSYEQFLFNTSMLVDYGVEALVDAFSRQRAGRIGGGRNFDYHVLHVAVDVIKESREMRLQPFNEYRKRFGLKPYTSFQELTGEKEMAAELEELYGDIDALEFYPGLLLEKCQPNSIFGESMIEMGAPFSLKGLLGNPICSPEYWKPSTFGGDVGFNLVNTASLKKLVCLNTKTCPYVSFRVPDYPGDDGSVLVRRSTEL

[13] = Retention time of the compound by HPLC analysis; type: physicochemical
[14] = Chemical stability in pH 8.8 simulated gut district fluid at 2.5 mg/ml after 60 mins by HPLC analysis; type: ADME, physicochemical; settings: buffer, pH 8.8, 1 h
[15] = Metabolic stability in rat liver S9 fraction after 30 mins in presence of NADP+ by HPLC analysis; type: ADME, subcellular; settings: s9, 0.5 h
[16] = biological target: T6, Prostaglandin G/H synthase 1 (Mus musculus); assay: Inhibition of COX1 in mouse BV2 cells assessed as reduction in LPS-stimulated PGE2 release by measuring PGE2 level at 10 uM preincubated for 1 hr followed by LPS addition measured after 48 hrs by immunoassay (reference value: 0.7555 +/- 0.032 ng/ml); type: cell-based
[17] = Chemical stability in pH 7.3 simulated blood fluid at 2.5 mg/ml after 60 mins by HPLC analysis; type: ADME, physicochemical; settings: pH 7.3, 1 h
[18] = Chemical stability in pH 1 simulated gastric fluid at 2.5 mg/ml after 60 mins by HPLC analysis; type: ADME, physicochemical; settings: simulated gi fluid, pH 1, 1 h
[19] = species on record: Homo sapiens; assay: Selectivity index, ratio of IC50 for inhibition of human COX2 to IC50 for inhibition of human COX1
[20] = system: Caco-2; assay: Cell cycle arrest in human Caco2 cells assessed as accumulation at G0/G1-phase at 100 uM after 24 hrs by propidium iodide staining based flow cytometry; type: functional
[21] = biological target: T6, Prostaglandin G/H synthase 1 (Mus musculus); assay: Inhibition of COX1 in mouse BV2 cells assessed as reduction in LPS-stimulated PGE2 release by measuring PGE2 level at 0.5 uM preincubated for 1 hr followed by LPS addition measured after 48 hrs by immunoassay (reference value: 0.7555 +/- 0.032 ng/ml); type: cell-based

T4 sequence (P23219 whole entry): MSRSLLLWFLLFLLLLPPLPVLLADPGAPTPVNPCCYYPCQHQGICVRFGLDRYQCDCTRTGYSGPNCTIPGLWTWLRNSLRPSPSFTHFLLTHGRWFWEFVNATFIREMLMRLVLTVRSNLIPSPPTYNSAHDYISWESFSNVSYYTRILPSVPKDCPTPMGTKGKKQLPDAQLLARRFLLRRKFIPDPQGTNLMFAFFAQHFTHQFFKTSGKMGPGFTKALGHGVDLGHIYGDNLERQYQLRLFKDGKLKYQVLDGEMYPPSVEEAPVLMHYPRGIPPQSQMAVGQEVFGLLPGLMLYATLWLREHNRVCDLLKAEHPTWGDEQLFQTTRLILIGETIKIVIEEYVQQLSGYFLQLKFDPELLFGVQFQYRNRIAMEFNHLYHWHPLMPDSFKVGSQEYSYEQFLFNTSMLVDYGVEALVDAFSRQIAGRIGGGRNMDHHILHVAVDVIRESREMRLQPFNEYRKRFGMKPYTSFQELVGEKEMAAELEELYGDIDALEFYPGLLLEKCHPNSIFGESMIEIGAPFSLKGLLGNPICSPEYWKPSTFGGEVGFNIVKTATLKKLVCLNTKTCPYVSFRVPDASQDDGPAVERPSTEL

SMILES: COc1ccc(-c2noc(CC(=O)OC[C@H]3O[C@@H](O)[C@H](O)[C@@H](O)[C@H]3O)c2-c2ccc(OC)cc2)cc1
- Activity [12]: 0.0178 ng/mL
- Retention_time [13]: 7.504 min
- Stability [14]: Stable
- Stability [15]: Stable
- Activity [1]: inactive
- Papp B→A at 2 h, 100 µM [2]: 87.5 ×10⁻⁶ cm/s
- Activity [16]: 0.0103 ng/mL
- Stability [17]: Stable
- inhibition (INH) [3]: Active
- Papp A→B at 2 h, 100 µM [4]: 38 ×10⁻⁶ cm/s
- Stability [18]: Stable
- Activity [5]: inactive
- permeability [6]: Permeable
- inhibition [7]: 87%
- Ratio IC50 [19]: 11.5
- inhibition [8]: 100%
- Activity [20]: inactive
- Activity [21]: 0.0086 ng/mL
- pIC50 [9]: 5.51
- pIC50 [10]: 6.57

SMILES: COc1ccc(-c2noc(CC(=O)O)c2-c2ccc(OC)cc2)cc1 [MOFEZOLAC]
- Activity [1]: inactive
- Papp B→A at 2 h, 100 µM [2]: 46.1 ×10⁻⁶ cm/s
- Papp A→B at 2 h, 100 µM [4]: 41.4 ×10⁻⁶ cm/s
- Activity [5]: inactive
- permeability [6]: Permeable
- inhibition [7]: 38%
- inhibition [8]: 100%
- Activity [20]: inactive
- Activity [21]: 0.0328 ng/mL

Now from value to molecule, other results behind:

- Papp B→A at 2 h, 100 µM [2]: 113 ×10⁻⁶ cm/s
- inhibition (INH) [3]: Active
- Papp A→B at 2 h, 100 µM [4]: 23.3 ×10⁻⁶ cm/s
- permeability [6]: Permeable
- inhibition [7]: 24%
- inhibition [8]: 38%
- pIC50 [9]: < 4.30
- pIC50 [10]: < 4.30
SMILES: COc1ccc(-c2noc(CC(=O)NCCCCC(=O)OC[C@H]3OC(O)[C@H](O)[C@@H](O)[C@H]3O)c2-c2ccc(OC)cc2)cc1 (some centres not stated)
- Activity [1]: Active
- Activity [5]: Active

- inhibition (INH) [11]: Active
SMILES: OC[C@H]1OC(O)[C@H](O)[C@@H](O)[C@@H]1O (some centres not stated) [DEXTROSE]

- Papp B→A at 2 h, 100 µM [2]: 58.7 ×10⁻⁶ cm/s
- inhibition (INH) [3]: Active
- Papp A→B at 2 h, 100 µM [4]: 16.9 ×10⁻⁶ cm/s
- permeability [6]: Permeable
- inhibition [7]: 64%
- Ratio IC50 [19]: 0.67
- inhibition [8]: 90%
- pIC50 [9]: 6.57
- pIC50 [10]: 6.40
SMILES: COc1ccc(-c2noc(CC(=O)NCCCCCCCCCCC(=O)OC[C@H]3OC(O)[C@H](O)[C@@H](O)[C@H]3O)c2-c2ccc(OC)cc2)cc1 (some centres not stated)
- Activity [1]: inactive
- Activity [5]: inactive
- Activity [20]: inactive
